From patent publication US5008246A, “Novel peptides suppressing the function of the immune system, pharmaceutical compositions containing them and process for preparing same” (Richter Gedeon Vegyeszeti Gyar R. T., priority 1988, dated 1991)
Where a SMILES comes first, the peptide text is derived from it. [ ]: non-standard residue; d: D form.

Tests used:
resting macrophages = assay: Effect on the phagocytating capacity of resting macrophages; assay type: in vivo, male NZB (OLAC-SzKB) mice; conditions: 1 mg/kg s.c. daily for 4 days; count of phagocytated opsonized yeast cells by peritoneal macrophages vs untreated animals
Protocol: These examinations were carried out on 6 months old male NZB (OLAC-SzKB) mice according to the method described in J. Immunopharmnacol. 4, 265 (1982-1983). The animals were treated daily with a 1 mg/kg subcutaneous (s.c.) dose of the test substances for 4 days. After bleeding the animals, their peritonea were washed with 8 ml of PBS buffer solution (pH 7.2) each containing 10 IU of heparin. The cell suspension washed out from the peritoneum was made free of the erythrocytes by shocking with distilled water, then washed 3 times with PBS buffer solution. The sedimentation between two washings was achieved by centrifuging at 1000 rpm for 5 minutes. Then, the concentration of each cell suspension was adjusted to 10^6 cell/ml and the suspension was settled for 30 minutes in a Boyden-chamber at 37° C. in an atmosphere containing 5% of carbon dioxide. Over the macrophages adhered to the glass wall, opsonized yeast was layered. After removing the non-phagocytated particles, those incorporated by the macrophages were counted in each cell. In Table 3, the percentage of decrease in the count of the phagocytated yeast cells is given in relation to the macrophages isolated from the untreated animals as control.

contact dermatitis = assay: Inhibition of the contact dermatitis (oxazolone, method of Evans et al.); assay type: in vivo, male BALB/c (LATI) mice; conditions: oxazolone-sensitized mice, 1.0 mg/kg i.p.; ear weight difference after 24 hours vs physiological saline control
Protocol: These investigations were carried out on male BALB/c (LATI) mice with 20 to 22 g body-weight by using the method of Evans et al. [Br. J. Pharmacol. 43, 403 (1971)]. The abdominal side of the animals were depilated, then the naked abdominal skin of each animal was sensitized by 0.1 ml of the oxazolone solution of 2% in sunflower oil. After 1 week, the mice were i.p. treated with an 1.0 mg/kg dose of the test substance (dissolved in physiological saline solution), then the right ear of the animals was directly treated with 10 μl of an acetone solution containing 2% oxazolone while their left ear was treated with 10 μl of acetone. After 24 hours, their ears were cut off and weighed. The difference between the weight of treated and untreated ears of the animals was compared with the difference observed at the animals treated with the test substance and treated only with physiological saline solution, respectively. The difference in the ear weight was considered to be proportional to the extent of the contact dermatitis, while the value measured at the animals not treated with the test substance was taken as control, the dermatitis-diminishing effect of the test substances was obtained as expressed in percentage shown in Table 4.

| Structure (SMILES) | Effect on the phagocytating capacity of resting macrophages % (resting macrophages) [%] | Inhibition of the contact dermatitis % (contact dermatitis) [%] |
| --- | --- | --- |
| N=C(N)NCCC[C@H](N)C(=O)NCCCC[C@H](N)C(=O)N[C@@H](CC(=O)O)C(=O)O [Compound 12, Lys(Arg)--Asp] (H-Lys(Arg)-Asp-OH) | -42 | -16 |
| N=C(N)NCCC[C@H](N)C(=O)NCCCC[C@H](N)C(=O)N[C@H](CC(=O)O)C(=O)O [Compound 13, Lys(Arg)--D--Asp] (H-Lys(Arg)-[dD]-OH) | -50 | – |
